Counter-ions that a name gives are not always drawn. Like-named read-outs stand apart in the source and are kept apart here.
Key:
Type in all cases: cell-based
E. coli (ATCC 25922) = experiment: MIC determination, sensitization fold and FIC index on E. coli; conditions: for MIC: Escherichia coli, ATCC25922, 24 h; for Sensitization: compound up to 25 μM; for MIC of AB with MD-124: MD-124 concentration 5 μg/ml
Experimental: Bacteria culture and MICs determination: Gram-negative bacteria were cultured in Mueller Hinton II cation-adjusted broth. Gram-positive bacteria were cultured in LB broth. Mycobacterium smegmatis was cultured in Middlebrook 7H9 Broth. MICs of antibiotics itself were determined by performing two-fold serial dilutions of antibiotics. MICs of antibiotics in the presence of bacterial sensitizers were determined by performing two-fold serial dilutions of antibiotics with or without a constant concentration of bacterial sensitizers. The MICs tests were performed on 96-well plates with a final volume of 200 μl Mueller Hinton II cation-adjusted broth in each well. Each well was inoculated with 5×10^5 CFU/ml bacteria and was incubated for 24 h at 37° C. with continuous shaking of 200 rpm. The bacterial density was then determined by OD600. Bacterial growth %=OD600 of antibiotic treatment group/OD600 of antibiotic non-treatment group. MICs was determined as the concentrations that inhibit more than 90% of bacteria growth.
Sensitization fold determination and FIC index calculations: Sensitization fold=MIC of antibiotic only/MIC of antibiotic with bacterial sensitizer. […] Since the MICs were determined by performing two-fold serial dilutions of antibiotic, so the sensitization fold can is the times of 2.
FIC index between compound a and b was calculated according to the formula below: […]
FIC≤0.5: Synergy; FIC between 0.5 and 1: Additive; FIC between 1 and […]: no interaction; FIC >4: antagonism.
Bacteria strains (as indicated in Table 5B) were cultured with rifampicin at various concentrations in the presence or absence of 10 μM of the indicated compound for 20 h at 37° C. The MIC, sensitization, cytotoxicity, and MIC on mycobacteria were tested according to methods described herein. […] The sensitization activities of compounds on MRSA were tested using rifampicin. The sensitization activities of compounds on E. coli were tested using rifampicin.

B. subtilis = experiment: MIC determination and sensitization fold on B. subtilis; conditions: for Sensitization fold / MIC: B. subtilis; for Sensitization fold: erythromycin; for MIC: Bacillus subtilis, 24 h, compound alone, read-out: MIC
[1] = Cytotoxicity in H9c2 cells (CCK-8); conditions: rat, H9c2 cells; H9c2 cell line
Experimental: The cytotoxicity in H9c2 (ATCC®CRL-1446™) cells was also determined. The H9c2 cells were maintained in DMEM (Dulbecco's Modified Eagle's Medium) supplemented with 10% fetal bovine serum (MidSci; S01520HI) and 1% penicillin-streptomycin (Sigma-Aldrich; P4333) at 37° C. with 5% CO2. The H9c2 cells were seeded in 96-well plate one day before the experiment. Different concentrations of di-amidine compounds were added into the H9c2 cells. The cells were then incubated with the compounds for 24 hours at 37° C. with 5% CO2. The cell viability was tested by the CCK-8. Specifically, after 24 hour incubation, 10 μL CCK-8 was added to each well. After 3 hours incubation at 37° C., the absorbance at 450 nm was recorded by a plate reader.

[2] = E. coli, rifampicin, compound at 10 μM
[3] = E. coli, compound alone, read-out: MIC
[4] = E. coli towards the antibiotic, MD-124 5 μg/ml
[5] = E. coli (wild type), antibiotic alone, read-out: MIC of AB only

| SMILES | MIC (E. coli (ATCC 25922); [3]) [µM] | Sensitization fold (E. coli (ATCC 25922); [4]) [fold] | MIC of AB with MD-124 (E. coli (ATCC 25922); E. coli) [µg/mL] | MIC (E. coli (ATCC 25922); [5]) [µg/mL] | further results |
| --- | --- | --- | --- | --- | --- |
| N=C(N)c1ccc(COc2cc(OCc3ccc(C(=N)N)cc3F)cc(C(F)(F)F)c2)c(F)c1 [MD-127, dihydrochloride] | 100 | – | – | – | Sensitization fold (E. coli (ATCC 25922); [2]): 516-fold at 10 μM |
| N=C(N)c1ccc(OCOc2ccc(C(=N)N)cc2)cc1 [DB1824] | > 100 | – | – | – | Sensitization (E. coli (ATCC 25922); E. coli, rifampicin): No effect up to 25 μM; Sensitization fold (B. subtilis; compound at 12.5 μM): 2-fold at 12.5 μM,; MIC (B. subtilis): 12.5 µM; CC50 at 24 h [1]: > 100 µM |
| COc1cccc(OC)c1C(=O)N[C@@H]1C(=O)N2[C@@H]1SC(C)(C)[C@@H]2C(=O)O [methicillin, reference compound] | – | – | – | – | sensitization fold with 5.5 μg/ml DB2560 (B. subtilis; B. subtilis towards the antibiotic): 4 fold |
| N=C(N)c1ccc(CCc2cc(CCc3ccc(C(=N)N)cc3)cc(C(F)(F)F)c2)cc1 [MD-128, 1,3-Bis {(4-amidino)-phenethyl}-5-trifluoromethylbenzene dihydrochloride] | – | – | – | – | Sensitization fold (E. coli (ATCC 25922); [2]): 516-fold at 10 μM; MIC (E. coli (ATCC 25922)): 100 µM |
| CO[C@H]1/C=C/O[C@@]2(C)Oc3c(C)c(O)c4c(O)c(c(/C=N/N5CCN(C6CCCC6)CC5)c(O)c4c3C2=O)NC(=O)/C(C)=C\C=C\[C@H](C)[C@H](O)[C@@H](C)[C@@H](O)[C@@H](C)[C@H](OC(C)=O)[C@@H]1C [Rifapentine, reference compound] | – | 32 | 0.8 | 25 | – |
| COc1c(N2C[C@@H]3CCCN[C@@H]3C2)c(F)cc2c(=O)c(C(=O)O)cn(C3CC3)c12 [Moxifloxacin, reference compound] | – | 8 | 0.0062 | 0.05 | – |
| C[C@H]1COc2c(N3CCN(C)CC3)c(F)cc3c(=O)c(C(=O)O)cn1c23 [Levofloxacin, reference compound] | – | 8 | 0.0062 | 0.05 | – |
| Cc1ccc(COc2ccc(C(=N)N)cc2)cc1COc1ccc(C(=N)N)cc1 [MD-119, 1,3-Bis {(4-amidino)-phenoxymethyl}-6-methylbenzene dihydrochloride] | – | – | – | – | Sensitization fold (E. coli (ATCC 25922); E. coli, rifampicin, compound at 12.5 μM): 4-fold at 12.5 μM.; Sensitization fold (E. coli (ATCC 25922); E. coli, rifampicin, compound at 25 μM): 32-fold at 25 μM,; MIC (E. coli (ATCC 25922)): 100 µM; Sensitization fold (B. subtilis; compound at 6 μM): 16-fold at 6 μM; Sensitization fold (B. subtilis; compound at 12 μM): 32-fold at 12 μM,; MIC (B. subtilis): 25 µM |
| CC[C@H]1OC(=O)[C@H](C)[C@@H](O[C@H]2C[C@@](C)(OC)[C@@H](O)[C@H](C)O2)[C@H](C)[C@@H](O[C@@H]2O[C@H](C)C[C@H](N(C)C)[C@H]2O)[C@](C)(O)C[C@@H](C)CN(C)[C@H](C)[C@@H](O)[C@]1(C)O [Azithromycin, reference compound] | – | 16 | 0.4 | 6.2 | – |
| Fc1cc(C2=NCCN2)ccc1OCc1cccc(COc2ccc(C3=NCCN3)cc2F)c1F [DB2554, 1,3-Bis {4-(2-imidazolino)-2-fluoro)-phenoxy methyl}-2-fluorobenzene dihydrochloride] | > 50 | – | – | – | Sensitization (E. coli (ATCC 25922); E. coli, rifampicin): No effect up to 25 μM; CC50 at 24 h [1]: 50 µM |
| N=C(N)c1ccc(OCc2cccc(COc3ccc(C(=N)N)cc3)n2)cc1 [DB2447] | 100 | – | – | – | Sensitization (E. coli (ATCC 25922); E. coli, rifampicin): No effect up to 25 μM; Sensitization fold (B. subtilis; compound at 2 μM): No effect at 2 μM.; CC50 at 24 h [1]: > 100 µM |
| Cc1onc(-c2ccccc2Cl)c1C(=O)N[C@@H]1C(=O)N2[C@@H]1SC(C)(C)[C@@H]2C(=O)O [Cloxacillin, reference compound] | – | >4 | 75 | > 300 | – |

Reference: US20230105108A1, “COMPOUNDS FOR THE TREATMENT OF BACTERIAL INFECTIONS AND POTENTIATION OF ANTIBIOTICS” (GEORGIA STATE UNIVERSITY RESEARCH FOUNDATION, INC., priority 2019, published 2023)
